Test results from US4996225A, “Tri-phenyl alkane derivatives and their oestrogenic, anti-oestrogenic and progestanic uses” (Farmos Group Ltd., priority 1982, dated 1991).
“Also recorded” adds a separate entry of the source. Values belong to the compound of their own block, whether it stands above or below them.

Experiments:
oestrogen receptors = biological target: T1, oestrogen receptors (Rattus norvegicus, UniProt P06211); assay: affinity for oestrogen receptors, competition with 3H-17-β-estradiol in rat uterus cytosol (dextran-charcoal method); type: binding; conditions: read-out: Estrogen receptor affinity (concentration of compound where 50% competition (inhibition) with 3H-estradiol occurred)
T1 construct: rat uterus cytosol preparation; from tissue; host or cells: rat uterus cytosol
T1 sequence (P06211 1-600): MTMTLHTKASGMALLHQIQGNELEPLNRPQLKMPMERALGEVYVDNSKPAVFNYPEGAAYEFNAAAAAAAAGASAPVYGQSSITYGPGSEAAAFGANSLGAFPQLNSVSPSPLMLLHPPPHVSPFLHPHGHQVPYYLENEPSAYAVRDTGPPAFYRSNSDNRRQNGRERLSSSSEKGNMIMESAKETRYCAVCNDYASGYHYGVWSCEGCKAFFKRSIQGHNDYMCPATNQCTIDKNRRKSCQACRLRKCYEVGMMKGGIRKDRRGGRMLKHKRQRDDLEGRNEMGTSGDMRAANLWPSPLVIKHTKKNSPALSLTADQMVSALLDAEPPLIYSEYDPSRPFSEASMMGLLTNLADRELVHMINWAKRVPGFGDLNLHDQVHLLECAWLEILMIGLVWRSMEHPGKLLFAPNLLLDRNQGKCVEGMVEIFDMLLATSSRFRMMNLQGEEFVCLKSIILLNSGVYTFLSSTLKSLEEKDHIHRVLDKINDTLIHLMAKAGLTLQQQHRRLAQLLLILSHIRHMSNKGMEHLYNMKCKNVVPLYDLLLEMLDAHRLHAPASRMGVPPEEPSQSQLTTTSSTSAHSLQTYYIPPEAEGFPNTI
Experimental: The affinity of the new compounds for oestrogen receptors was determined by the ability to compete with ^3 H-labelled 17-β-estradiol in rat uterus cytosol preparation. After incubation, receptor-bound and receptor-unbound ligands were separated by a known dextrancharcoal method.

immature mouse uterus [1] = assay: oestrogenic effect, uterus weight of immature mice; type: in vivo; conditions: for increase in uterus weight / estrogenic effect: less than that of estradiol 0.05 mg/kg: 5 mg/kg; for estrogenic effect (in words): immature mice, s.c., three days
Experimental: (§1) The oestrogen-antiestrogen (progesterone) effect of the new compounds in vivo was determined as follows: (1) The oestrogenic properties were determined by administering the new compounds, suspended in sesame oil, subcutaneously to 21 days old immature mice on three consecutive days. The mice were killed on the fourth day and the uterus was weighed. […] The weight correlates with the oestrogenic effect of the compound tested. […] In this case, the ability of the molecules to inhibit oestrogen-induced uterus weight increase was also investigated.

[2] = system: estradiol induced weight increase in immature mouse uterus; assay: antiestrogenic effect, inhibition of oestrogen-induced uterus weight increase in immature mice; type: in vivo; conditions: for inhibition of estradiol-induced uterus weight increase: estradiol 5 μg/kg; for anti-estrogenic effect (in words): immature mouse uterus; for effect with estradiol (in words) / reduction in the weights of mice uterus, with estradiol: with estradiol 0.05 mg/kg
Experimental: as §1

[3] = system: MCF-7 cell line (human mammary adenocarcinoma); assay: anti-tumour effect in vitro, growth of MCF-7 cell line (bioluminescence assay, intracellular ATP); type: cell-based; conditions: read-out: Antitumour effect against MCF-7 cell line (IC50 = concentration of compound where 50% inhibition of cell growth could be seen)
Experimental: The anti-tumour effect was studied in vitro as follows:
The amount of living cells after 4 h, 24 h and 48 h incubations were determined by bioluminescence assay (intracellular ATP determination).
inhibition of cell growth could be seen.

[4] = system: DMBA-induced rat mammary adenocarcinomas; assay: antitumour effect in vivo against DMBA-induced rat mammary adenocarcinoma; conditions: for growth / size of tumour (width×height): 30 mg/kg
Experimental: (§2) The anti-tumour effect was investigated in vivo against DMBA-induced rat mammary adenocarcinomas, transplantable mammary and ovarial adenocarcinoma and transplantable prostatic squamous cell carcinoma by the following methods:
Mammary adenocarcinomas were induced by DMBA in 35-40 days old female rats. […] Tumour size and numbers of tumours were evaluated twice a week. Tumour sizes in the control group, treated with solvent, were compared with the test groups.
The size refers to the width×height of the tumour. The growth rate is a difference between sizes compared with that of the first day of the treatment.

immature mouse uterus [5] = assay: progestanic effect, uterus weight of immature mice (alone or with medroxyprogesterone acetate); type: in vivo; parameters: reduction in the weight of a mouse uterus, given alone / reduction in the weight of uterus with medroxyprogesterone / reduction in the weights of mice uterus, given alone: concentration or dose not given beside the values; conditions: for effect with medroxyprogesterone (in words) / reduction in the weights of mice uterus with medroxyprogesterone, compared to control: with medroxyprogesterone 0.06 mg/kg; for reduction in the weights of mice uterus, given alone: Table 2A; for progestanic effect (in words): immature mouse uterus
rat ovarial carcinoma = assay: antitumour effect against transplantable rat ovarial carcinoma; type: in vivo; conditions: 5 mg/kg, ten days' treatment
Description: as §2
(§3) Transplantable rat mammary adenocarcinoma was developed by inoculating pieces of DMBA-induced carcinomas subcutaneously to healthy mature female rats. A tumour which expressed malignant growth was selected for further transplantations. Other transplantable tumours were inoculated subcutaneously as washed cell suspension (10^7 cells/animal).

mouse uterus sarcoma = assay: antitumour effect against transplantable mouse uterus sarcoma; type: in vivo; conditions: 100 mg/kg, two weeks' treatment
Description: The activity of the molecules against other tumours was studied by administering the molecules by stomach tube to animals implanted with transplantable uterus sarcoma (mice) or prostatic adenocarcinoma (rats).
Daily or twice weekly administration schedules were employed. NMRI mice (about 20 g, females) and Fischer 344 rats (about 200 g, males) were used. Estramustine phosphate served as positive control.
as §3

IC50 (oestrogen receptors): 0.1 to 1 µM
IC50 [3]: 5 to 10 µM
SMILES: CN(C)CCOc1ccc(/C(=C(/CCF)c2ccccc2)c2ccccc2)cc1 [Compound 21, 4-fluoro-1,2-diphenyl-1-[4-[2-(N,N-dimethylamino)ethoxy]phenyl]-1-butene]
increase in uterus weight (immature mouse uterus [1]): ≤ 55%
inhibition of estradiol-induced uterus weight increase ([2]; 5 mg/kg): 68-100%
growth rate of the tumours (in words) ([4]; rat, in vivo): only the growth rate of the tumours was reduced

IC50 (oestrogen receptors): 0.1 to 1 µM
IC50 [3]: 5 to 10 µM
SMILES: Oc1ccc([C@@H](c2ccccc2)[C@@H](CCCl)c2ccccc2)cc1 (relative stereo) [Compound 14, 4-chloro-1,2-diphenyl-1-(4-hydroxyphenyl)-butane]
estrogenic effect: less than that of estradiol 0.05 mg/kg (immature mouse uterus [1]): about 50%
effect given alone: estrogenic (in words) (immature mouse uterus [1]): estrogenic
increase in the weights of mice uterus, given alone (immature mouse uterus [1]): 50%
estrogenic effect (in words) (immature mouse uterus [1]): could be seen only at the higher concentrations investigated
inhibition of estradiol induced effect in mouse uterus ([2]; 5 mg/kg): 20%
anti-estrogenic effect (in words) [2]: possessed anti-estrogenic effects
effect with estradiol (in words) [2]: anti-
reduction in the weights of mice uterus, with estradiol [2]: 20%

IC50 (oestrogen receptors): 1 to 10 µM
IC50 [3]: 1 to 5 µM
SMILES: CNCCOc1ccc(/C(=C(/CCCl)c2ccccc2)c2ccccc2)cc1 [Compound 23, 4-chloro-1,2-diphenyl-1-[4-[2-(N-methylamino)ethoxy]phenyl]-1-butene]
increase in uterus weight (immature mouse uterus [1]): ≤ 55%
inhibition of estradiol-induced uterus weight increase ([2]; 5 mg/kg): 68-100%
growth rate of the tumours (in words) ([4]; rat, in vivo): only the growth rate of the tumours was reduced

IC50 (oestrogen receptors): 0.1 to 1 µM
IC50 [3]: 1 to 5 µM
SMILES: CN(C)CCOc1ccc(/C(=C(/CCBr)c2ccccc2)c2ccccc2)cc1 [Compound 13, 4-bromo-1,2-diphenyl-1-[4-[2-(N,N-dimethylamino)ethoxy]phenyl]-1-butene]
estrogenic effect: less than that of estradiol 0.05 mg/kg (immature mouse uterus [1]): about 50%
effect given alone: estrogenic (in words) (immature mouse uterus [1]): estrogenic
increase in the weights of mice uterus, given alone (immature mouse uterus [1]): 50%
estrogenic effect (in words) (immature mouse uterus [1]): could be seen only at the higher concentrations investigated
inhibition of estradiol induced effect in mouse uterus ([2]; 5 mg/kg): 25%
anti-estrogenic effect (in words) [2]: possessed anti-estrogenic effects
effect with estradiol (in words) [2]: anti-
reduction in the weights of mice uterus, with estradiol [2]: 25%
effect with medroxyprogesterone (in words) (immature mouse uterus [5]): weak
reduction in the weights of mice uterus with medroxyprogesterone, compared to control (immature mouse uterus [5]): 14%
antitumour effect against DMBA-induced mammary cancer (in words) ([4]; compared with compound 7): Antitumour effect less than that of compound 7

IC50 (oestrogen receptors): 1 to 10 µM
IC50 [3]: 1 to 5 µM
SMILES: CN(C)CCOc1ccc(/C(=C(/CCO)c2ccccc2)c2ccccc2)cc1 [Compound 4, 1,2-diphenyl-1-[4-[2-(N,N-dimethylamino)-ethoxy]-phenyl]-1-buten-4-ol]
estrogenic effect of their own (in words) (immature mouse uterus [1]; up to 5 mg/kg): no estrogenic effect of their own
inhibition of estradiol induced effect in mouse uterus ([2]; 0.5 mg/kg): 12%
effect given alone: antiestrogenic (in words) ([2]; given alone): anti-
anti-estrogenic effect (in words) [2]: possessed anti-estrogenic effects
effect with estradiol (in words) [2]: anti-
reduction in the weights of mice uterus, with estradiol [2]: 21%
effect given alone: progestanic (in words) (immature mouse uterus [5]; given alone): progestanic
reduction in the weight of a mouse uterus, given alone (immature mouse uterus [5]; given alone): 38%
reduction in the weights of mice uterus, given alone (immature mouse uterus [5]; given alone): 31%
interaction with medroxyprogesterone (in words) (immature mouse uterus [5]; with medroxyprogesterone): slight inhibition
reduction in the weight of uterus with medroxyprogesterone (immature mouse uterus [5]; with medroxyprogesterone): 17%
effect with medroxyprogesterone (in words) (immature mouse uterus [5]): weak
reduction in the weights of mice uterus with medroxyprogesterone, compared to control (immature mouse uterus [5]): 17%
growth rate of tumours compared to controls ([4]; 10 mg/kg): one eighth

IC50 (oestrogen receptors): 0.1 to 1 µM
IC50 [3]: 1 to 5 µM
SMILES: Oc1ccc([C@@]2(c3ccccc3)OCCC[C@@H]2c2ccccc2)cc1 (relative stereo) [Compound 5, 2,3-diphenyl-2-(4-hydroxyphenyl)tetrahydropyran]
estrogenic effect: less than that of estradiol 0.05 mg/kg (immature mouse uterus [1]): 41%
estrogenic effect (in words) (immature mouse uterus [1]): could be seen only at the higher concentrations investigated
estrogenic effect with increased doses (in words) (immature mouse uterus [1]; increased doses, effect overcame that of medroxyprogesterone): a weak estrogenic effect could be seen; also recorded: A slight increase in the weight of uterus
anti-estrogenic effect (in words) [2]: no antiestrogenic effect
effect with estradiol (in words) [2]: no synergism
decrease of weight of mouse uterus (immature mouse uterus [5]; 0.05 mg/kg): 34%
effect given alone: progestanic (in words) (immature mouse uterus [5]; given alone): progestanic
reduction in the weights of mice uterus, given alone (immature mouse uterus [5]; given alone): 34%
progestanic effect (in words) (immature mouse uterus [5]): due to its progestanic effect
interaction with medroxyprogesterone (in words) (immature mouse uterus [5]; with medroxyprogesterone): No inhibition of medroxyprogesterone
effect with medroxyprogesterone (in words) (immature mouse uterus [5]): no inhibition
reduction in the weights of mice uterus with medroxyprogesterone, compared to control (immature mouse uterus [5]): 34%

SMILES: CN(C)CCOc1ccc(/C(=C(/CCCl)c2ccccc2)c2ccccc2)cc1 [Compound 7, 4-chloro-1,2-diphenyl-1-[4-[2-(N,N-dimethylamino)ethoxy]phenyl]-1-butene]
estrogenic effect: less than that of estradiol 0.05 mg/kg (immature mouse uterus [1]): about 50%
effect given alone: estrogenic (in words) (immature mouse uterus [1]): estrogenic
estrogenic effect (in words) (immature mouse uterus [1]): could be seen only at the higher concentrations investigated; also recorded: possessing antiestrogenic and estrogenic properties
inhibition of estradiol induced effect in mouse uterus ([2]; 0.5 mg/kg): 27%
anti-estrogenic effect (in words) [2]: possessed anti-estrogenic effects; also recorded: possessing antiestrogenic and estrogenic properties
effect with estradiol (in words) [2]: anti-
reduction in the weights of mice uterus, with estradiol [2]: 27%
effect given alone: progestanic (in words) (immature mouse uterus [5]; given alone): progestanic
progestanic effect (in words) (immature mouse uterus [5]): found to be progestanic
interaction with medroxyprogesterone (in words) (immature mouse uterus [5]; with medroxyprogesterone): slight inhibition of medroxyprogesterone at the lowest dose studied
effect with medroxyprogesterone (in words) (immature mouse uterus [5]): weak
reduction in the weights of mice uterus with medroxyprogesterone, compared to control (immature mouse uterus [5]): 14%
IC50 [3]: 1 to 5 µM
growth ([4]; day 1 of treatment): 0
size of tumour (width×height) ([4]; day 1 of treatment): 1.5188
growth ([4]; day 3 of treatment): 0.1551
size of tumour (width×height) ([4]; day 3 of treatment): 1.6739
growth ([4]; day 7 of treatment): -0.2118
size of tumour (width×height) ([4]; day 7 of treatment): 1.3070
growth ([4]; day 9 of treatment): -0.4714
size of tumour (width×height) ([4]; day 9 of treatment): 1.0474
growth ([4]; day 14 of treatment): -0.5392
size of tumour (width×height) ([4]; day 14 of treatment): 0.1179
growth ([4]; day 17 of treatment): -0.5752
size of tumour (width×height) ([4]; day 17 of treatment): 0.0820
growth ([4]; day 21 of treatment): -0.5851
size of tumour (width×height) ([4]; day 21 of treatment): 0.0721
growth ([4]; day 25 of treatment): -0.5682
size of tumour (width×height) ([4]; day 25 of treatment): 0.0891
growth ([4]; day 28 of treatment): -0.5640
size of tumour (width×height) ([4]; day 28 of treatment): 0.09316
growth ([4]; day 35 of treatment): -0.5379
size of tumour (width×height) ([4]; day 35 of treatment): 0.1193
growth of the tumours (in words) ([4]; highest dose used (30 mg/kg)): the growth of the tumours was found to stop
dose range at which antitumour effect was found ([4]; rat, in vivo): 1.0 to 30 mg/kg
size of rat ovarial carcinoma smaller compared with control (rat ovarial carcinoma): 20%
size of uterus sarcoma smaller than that of control (mouse uterus sarcoma): 30%

IC50 (oestrogen receptors): 0.1 to 1 µM
IC50 [3]: 1 to 5 µM
SMILES: CN(C)CCOc1ccc(/C(=C(/CCI)c2ccccc2)c2ccccc2)cc1 [Compound 22, 4-iodo-1,2-diphenyl-1-[4-[2-(N,N-dimethylamino)ethoxy]phenyl]-1-butene]
increase in uterus weight (immature mouse uterus [1]): ≤ 70%
inhibition of estradiol-induced uterus weight increase ([2]; 5 mg/kg): less than 67%
amount of new tumours (in words) ([4]; rat, in vivo): the amount of new tumours decreased
growth rate of the tumours (in words) ([4]; rat, in vivo): the growth rate of the tumours decreased
